Laboratory results as given in PubChem BioAssay (NCI).
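Compound exposure: 48 hours, 5 concentrations, 96-well plates. The concentration for 50% growth inhibition is given as GI50. The concentration for full growth arrest is given as TGI.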

What was measured:
Test in all cases: NCI tumour cell line growth inhibition, 48 h
[1] = test system: 786-0 renal
[2] = test system: A498 renal
[3] = test system: A549 NSCLC
[4] = test system: ACHN renal
[5] = test system: BT-549 breast
[6] = test system: CAKI-1 renal
[7] = test system: CCRF-CEM leukemia
[8] = test system: COLO 205 colon
[9] = test system: DU-145 prostate
[10] = test system: EKVX NSCLC
[11] = test system: HCC-2998 colon
[12] = test system: HCT-116 colon
[13] = test system: HCT-15 colon
[14] = test system: HL-60(TB) leukemia
[15] = test system: HOP-62 NSCLC
[16] = test system: HOP-92 NSCLC
[17] = test system: HS 578T breast
[18] = test system: HT29 colon
[19] = test system: IGROV1 ovarian
[20] = test system: K-562 leukemia
[21] = test system: KM12 colon
[22] = test system: LOX IMVI melanoma
[23] = test system: M14 melanoma
[24] = test system: MALME-3M melanoma
[25] = test system: MCF7 breast
[26] = test system: MDA-MB-231 breast
[27] = test system: MDA-MB-435
[28] = test system: MOLT-4 leukemia
[29] = test system: NCI-H226 lung
[30] = test system: NCI-H23 lung
[31] = test system: NCI-H460 lung
[32] = test system: NCI-H522 lung
[33] = test system: OVCAR-3 ovarian
[34] = test system: OVCAR-4 ovarian
[35] = test system: OVCAR-5 ovarian
[36] = test system: OVCAR-8 ovarian
[37] = test system: PC-3 prostate
[38] = test system: RPMI-8226 leukemia
[39] = test system: RXF 393 renal
[40] = test system: SF-268 CNS
[41] = test system: SF-295 CNS
[42] = test system: SF-539 CNS
[43] = test system: SK-MEL-2 melanoma
[44] = test system: SK-MEL-28 melanoma
[45] = test system: SK-MEL-5 melanoma
[46] = test system: SK-OV-3 ovarian
[47] = test system: SN12C renal
[48] = test system: SNB-19 CNS
[49] = test system: SNB-75 CNS
[50] = test system: SR leukemia
[51] = test system: SW-620 colon
[52] = test system: T-47D breast
[53] = test system: TK-10 renal
[54] = test system: U251 CNS
[55] = test system: UACC-257 melanoma
[56] = test system: UACC-62 melanoma
[57] = test system: UO-31 renal

Compound: O=c1ccc(N=Nc2ccccc2)ccc1Cl
- GI50 [1]: 3.83 µM
- TGI [1]: 13.6 µM
- GI50 [2]: > 100 µM
- TGI [2]: > 100 µM
- GI50 [3]: 17 µM
- TGI [3]: 38.7 µM
- GI50 [4]: 3.11 µM
- TGI [4]: 10.2 µM
- GI50 [5]: 3.22 µM
- TGI [5]: 9.77 µM
- GI50 [6]: 13 µM
- TGI [6]: 25.8 µM
- GI50 [7]: 1390 nM
- TGI [7]: 26.7 µM
- GI50 [8]: 5.07 µM
- TGI [8]: 18.4 µM
- GI50 [9]: 15.5 µM
- TGI [9]: 29 µM
- GI50 [10]: 11.5 µM
- TGI [10]: 29.1 µM
- GI50 [11]: 12.2 µM
- TGI [11]: 26.4 µM
- GI50 [12]: 2610 nM
- TGI [12]: 9.49 µM
- GI50 [13]: 2530 nM
- TGI [13]: 8.07 µM
- GI50 [14]: 18.1 µM
- TGI [14]: 87.1 µM
- GI50 [15]: 31.3 µM
- TGI [15]: > 100 µM
- GI50 [16]: 13.9 µM
- TGI [16]: 28.1 µM
- GI50 [17]: 21.4 µM
- TGI [17]: 62.7 µM
- GI50 [18]: 5.62 µM
- TGI [18]: 19.2 µM
- GI50 [19]: 13.8 µM
- TGI [19]: 27.4 µM
- GI50 [20]: 1000 nM
- TGI [20]: > 100 µM
- GI50 [21]: 12.7 µM
- TGI [21]: 32.4 µM
- GI50 [22]: 2240 nM
- TGI [22]: 6.74 µM
- GI50 [23]: 2630 nM
- TGI [23]: 12.7 µM
- GI50 [24]: 3.57 µM
- TGI [24]: 12.4 µM
- GI50 [25]: 3.16 µM
- TGI [25]: 18 µM
- GI50 [26]: 9.01 µM
- TGI [26]: 21.2 µM
- GI50 [27]: 14.8 µM
- TGI [27]: 29.6 µM
- GI50 [28]: 749 nM
- TGI [28]: > 100 µM
- GI50 [29]: 19.6 µM
- TGI [29]: 66.1 µM
- GI50 [30]: 6.25 µM
- TGI [30]: 21.9 µM
- GI50 [31]: 15.4 µM
- TGI [31]: 37.7 µM
- GI50 [32]: 1800 nM
- TGI [32]: 3.67 µM
- GI50 [33]: 4.39 µM
- TGI [33]: 15.6 µM
- GI50 [34]: 12.8 µM
- TGI [34]: 25.9 µM
- GI50 [35]: 15.4 µM
- TGI [35]: 29.3 µM
- GI50 [36]: 3.49 µM
- TGI [36]: 13.1 µM
- GI50 [37]: 5.16 µM
- TGI [37]: 18.7 µM
- GI50 [38]: 3.76 µM
- TGI [38]: 27.4 µM
- GI50 [39]: 8.19 µM
- TGI [39]: 22.1 µM
- GI50 [40]: 18.8 µM
- TGI [40]: 43.5 µM
- GI50 [41]: 18.1 µM
- TGI [41]: 46.6 µM
- GI50 [42]: 5.9 µM
- TGI [42]: 18.3 µM
- GI50 [43]: 13.9 µM
- TGI [43]: 29.8 µM
- GI50 [44]: 14.5 µM
- TGI [44]: 27.9 µM
- GI50 [45]: 15.7 µM
- TGI [45]: 31.7 µM
- GI50 [46]: 48 µM
- TGI [46]: > 100 µM
- GI50 [47]: 12.9 µM
- TGI [47]: 25.7 µM
- GI50 [48]: 26.2 µM
- TGI [48]: 91.4 µM
- GI50 [49]: 15.9 µM
- TGI [49]: 92.3 µM
- GI50 [50]: 1730 nM
- TGI [50]: > 100 µM
- GI50 [51]: 3.14 µM
- TGI [51]: 12.8 µM
- GI50 [52]: 3.14 µM
- TGI [52]: 26.4 µM
- GI50 [53]: 13.7 µM
- TGI [53]: 26.6 µM
- GI50 [54]: 2780 nM
- TGI [54]: 9.29 µM
- GI50 [55]: 11.5 µM
- TGI [55]: 24 µM
- GI50 [56]: 12.7 µM
- TGI [56]: 25.6 µM
- GI50 [57]: 7.39 µM
- TGI [57]: 20.7 µM
